Results on seven compounds are retold here after US10787490B2, “Peptide inhibitors of interleukin-23 receptor and their use to treat inflammatory diseases” (Protagonist Therapeutics, Inc., priority 2015, dated 2020).

Data set [1] has as its system TNBS-induced acute colitis, Sprague-Dawley rats. Kind of data set: TNBS induced colitis in rat. Format: in vivo.
A short description of data set [2]: Stability in simulated gastric fluid (SGF). Type of data set: in vitro ADME. To be noted: pig, simulated gastric fluid (SGF) with porcine pepsin, pH 2.
Data set [3] is described as follows: Stability in simulated intestinal fluid (SIF). Format: in vitro ADME. Further details: dose or concentration left out as unconfirmed. To be noted: simulated intestinal fluid (SIF) with pancreatin, pH 6.8; read-out: Stability (t1/2, hr) SIF (converted).
Data set [4] deals with distal colon tissue of TNBS-exposed rats. Kind of data set: Biomarkers in distal colon of TNBS rats (ELISA). Format: in vivo, rat. To be noted: vs vehicle treated controls. The procedure:
Levels of inflammatory markers were examined in the colons. The distal colon tissue samples, designated for protein expression analysis, were flash frozen after collection. For protein extraction, the samples were thawed, weighed and homogenized in the extraction buffer (PBS pH 7.2 supplemented with Protease Inhibitors, 3× volume:weight). The homogenates were centrifuged at 13 krpm at 4° C. for 15 minutes, a total of two times to remove the debris. The supernatants were saved in multiple aliquots in −80° C. and subsequently used for protein expression analysis on ELISA. The total protein in each sample was quantified using BCA assay.

Data set [5] has as its system IL-23R in human DB cells. Kind of data set: Schild analysis, Human DB Cell (pSTAT3). Type of data set: cell-based. To be noted: 0.3-100 nM peptide.
A short description of data set [6]: DTT stability assay (redox stability). Type of data set: in vitro ADME. To be noted: half-life, 0.5 mM DTT, room temperature, numeric.
Data set [7] has as its target human IL-23R (IL23R_huFC) (Homo sapiens, UniProt Q5VWK5). To be noted: read-out: ELISA IL23R/IL23 in nMoles (IC50); non-cyclic peptides.
Data set [8] deals with DSS-induced colitis, Sprague Dawley rats. The data set can be described thus: Rat Colitis Model: 9 Days of 3% DSS-Containing Drinking Water. Format: in vivo. The conditions noted are these: 100 mg/kg PO, QD.
In data set [9] the test system is Cyno IL-23R. Format: binding.
The test system of data set [10] is rat splenocytes. Kind of data set: Rat Splenocyte Assay (IL-17A). Format: cell-based. The conditions noted are these: IL-17A produced by activated splenocytes exposed to IL-23; read-out: Cell assay (nM) Rat (Spleen), IC50. As for the experimental part:
A new assay developed was the rat splenocyte assay.
Briefly, splenocytes freshly isolated from rat were seeded in 96-well tissue culture plates in complete medium containing IL-10. […] Changes in IL-17A levels in the supernatants were detected using an ELISA.

Setting [11] is: read-out: Cross Reactivity (nM) ELISA cyno IL23R IL23.

Where two headings read alike, the source gives them in different places. Where a SMILES comes first, the peptide text is derived from it. Bridges are numbered along the chain shown (N, C = ends). [ ]: non-standard residue; d: D form. 2Nal = N[C@@H](Cc1ccc2ccccc2c1)C(=O)O; AEF = NCCOc1ccc(C[C@H](N)C(=O)O)cc1; Pen = CC(C)(S)[C@H](N)C(=O)O; Thp = NC1(C(=O)O)CCOCC1 Some results are limits rather than exact numbers.

Chain of human IL-23R (IL23R_huFC) (Q5VWK5 24-354 limits assumed, looked up): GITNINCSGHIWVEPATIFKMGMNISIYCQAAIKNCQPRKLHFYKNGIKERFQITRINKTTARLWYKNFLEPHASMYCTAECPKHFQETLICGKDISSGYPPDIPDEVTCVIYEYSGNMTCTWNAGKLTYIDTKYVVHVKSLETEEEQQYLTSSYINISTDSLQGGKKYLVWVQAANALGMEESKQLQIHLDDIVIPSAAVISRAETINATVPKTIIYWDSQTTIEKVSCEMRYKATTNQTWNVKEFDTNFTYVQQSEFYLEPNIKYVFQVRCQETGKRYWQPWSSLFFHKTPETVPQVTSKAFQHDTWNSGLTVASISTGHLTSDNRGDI

In the case of `CC(=O)N[C@@H]1CCSC[C@@H](C(=O)N[C@@H](Cc2ccc(OCCN)cc2)C(=O)N[C@@H](Cc2ccc3ccccc3c2)C(=O)NC2(C(=O)N[C@@H](CCC(=O)O)C(=O)N[C@@H](CC(N)=O)C(=O)N[C@@H](CC(N)=O)C(N)=O)CCOCC2)NC(=O)[C@H](CCC(N)=O)NC(=O)[C@H](Cc2c[nH]c3ccccc23)NC(=O)[C@H]([C@@H](C)O)NC(=O)[C@@H](CCC(N)=O)NC1=O` [SEQ ID NO: 980], in data set [1] (Example 14, vs vehicle), the colon macroscopic score entry is listed as “significantly reduced” and the “sum of the histopathology score” value is recorded as “significantly reduced”. In addition, the weight loss result in [1] (Example 14, 37 mg/kg/day oral) is “prevented”. In data set [2], this compound showed a half-life at 20 μM of 600 min. Besides, the half-life in [3] was 11 h. For the same compound, in data set [4], the “IL-22 level in colon” value was “reduced” and the “MPO level in colon” value is reported as “reduced”.

The compound `CC(=O)NCCCC[C@H](NC(=O)C1(NC(=O)[C@H](Cc2ccc3ccccc3c2)NC(=O)[C@H](Cc2ccc(OCCN)cc2)NC(=O)[C@H]2NC(=O)[C@H](CCC(N)=O)NC(=O)[C@H](Cc3c[nH]c4ccccc34)NC(=O)[C@H]([C@@H](C)O)NC(=O)[C@H](CC(N)=O)NC(=O)[C@@H](NC(C)=O)C(C)(C)SSC2(C)C)CCOCC1)C(=O)N[C@@H](CC(N)=O)C(=O)N[C@@H](CC(N)=O)C(=O)N[C@@H](CC(N)=O)C(N)=O` [SEQ ID NO: 1211, Ac-[Pen]-NTWQ-[Pen]-[Phe[4-(2-aminoethoxy)]-[2-Nal]-[4-amino-4-carboxy-tetrahydropyran]-[Lys(Ac)]-NNN-NH2] (Ac-[Pen]NTWQ[Pen][AEF][2Nal][Thp]K(Ac)NNN-NH2; disulfide 1-6) yielded a Schild slope in data set [5] of 0.76.

`CC(=O)NC1CCSCC(C(=O)NC(Cc2ccc(OCCN)cc2)C(=O)NC(Cc2ccc3ccccc3c2)C(=O)NC2(C(=O)NC(CCC(=O)O)C(=O)NC(CC(N)=O)C(=O)NC(CC(N)=O)C(N)=O)CCOCC2)NC(=O)C(CCC(N)=O)NC(=O)C(Cc2c[nH]c3ccccc23)NC(=O)C(C(C)O)NC(=O)C(CCC(N)=O)NC1=O` (stereo not shown) [SEQ ID NO: 1290, Ac-cyclo[[Abu]-QTWQC]-[Phe[4-(2-aminoethoxy)]-[2-Nal]-[4-amino-4-carboxy-tetrahydropyran]-ENN-NH2]: the “DTT Stability” value in data set [6] is reported as >120 min. Besides, the IC50 in [7] is > 100 µM.

For the compound `O=C(O)c1cc(/N=N/c2ccc(S(=O)(=O)Nc3ccccn3)cc2)ccc1O` [sulfasalazine], the “terminal ratio of colon weight:colon length” value in data set [8] (difference vs DSS alone) is on record as “significant”. Besides, the “disease score (DAI)” value in [8] (from Day 5, vs DSS alone) is on record as “attenuated”.

Regarding “Ac-[Pen]-NTWQ-[Pen]-[Phe[4-(2-aminoethoxy)]-[2-Nal]-[4-amino-4-carboxy-tetrahydropyran]-[Lys(Ac)]—NN—NH2 [SEQ ID NO: 1185]”, the histopathology scores entry in [1] (Example 12) is “did not significantly reduce”. Further, the colon macroscopic score result in [1] (Example 12, vs vehicle) is recorded as “significantly reduced”. For the same compound, the weight loss entry in [1] (Example 12, Peptide 1185 37 mg/kg/day PO, anti-IL-23p19 4 mg/kg ip, prednisolone 10 mg/day P.O., vs vehicle) is given as “did not significantly prevent”. Also, the IC50 in [9] (IL-23/IL-23R competitive binding, cyno, read-out: ELISA (nM) Cyno, IC50) was determined as 3 nM. Further, in data set [4], the “IL-17A level in colon” value is “did not significantly reduce”, the “IL-22 level in colon” value was “did not significantly reduce” and the “MPO level in colon” value is “did not significantly reduce”. The IC50 in data set [10] amounted to 35 nM.

Take “H-CSNWVCYWHTYG-NH2 (cysteine pairing not given here) [SEQ ID NO: 198]”: the IC50 in data set [9] (setting [11]) is < 250 nM.

With Hy-CADWVCYWHTFG-NH2 [SEQ ID NO: 169], in [9] (setting [11]), the IC50 lay in the range of 1000 to 10000 nM.
